From publication PMC6270232, “1,2,3-Triazole-Substituted Oleanolic Acid Derivatives: Synthesis and Antiproliferative Activity” (Molecules, 2013)

Legend:
[1] = test system: normal lung fibroblasts (MRC-5); assay: Antiproliferative assay (MTT reduction), MRC-5; assay type: cell-based, human; parameters: key to Antiproliferative activity in words, MRC-5: IC50 values > 100 µM were considered inactive; details: for IC50: Homo sapiens, MRC5, 72 h, MRC-5 normal lung fibroblasts, 3 days treatment, MTT, read-out: IC50 ± SD, MRC-5
Method: (§1) All human cell lines used in this work were purchased from the American Type Culture Collection (ATCC, Manasas, VA, USA). […] Promyelocytic leukemia HL-60 cells (CCL-240) were grown in suspension in RPM1 medium containing 1 mM sodium pyruvate and 2.0 g/L sodium bicarbonate. All media were supplemented with 10% heat-inactivated FBS, 100 IU/mL penicillin and 100 µg/mL streptomycin. […] For the antiproliferative assay, adherent cells were plated at a density of 5 × 10^4 cells/mL and HL-60 cells at 30 × 10^4 cells/mL. Cells were seeded in 96-well plates (100 µL/well). One day after seeding, cells were treated with medium containing the compounds at concentrations ranging from 0 up to 100 µM during 3 days. The compounds were dissolved in DMSO (1% final concentration) and complete medium. Untreated cells (medium containing 1% DMSO) were used as 100% viability controls. […] Each concentration was tested in sextuplicate and experiments were repeated 2 times. Cell viability was determined by means of the MTT reduction assay at the end of the incubation with the products.

[2] = test system: gastric epithelial adenocarcinoma (AGS) cells; assay: Antiproliferative assay (MTT reduction), AGS; assay type: cell-based; details: Homo sapiens, 72 h, 3 days treatment, read-out: IC50 ± SD, AGS
Method: (§2) All human cell lines used in this work were purchased from the American Type Culture Collection (ATCC, Manasas, VA, USA). Normal lung MRC-5 fibroblasts (CCL-171), SK-MES-1 lung cancer cells (HTB-58) and J82 bladder carcinoma cells (HTB-1) were grown as monolayers in minimum essential Eagle medium (MEM) with Earles’s salts, 2 mM L-glutamine and 1.5 g/L sodium bicarbonate. Gastric adenocarcinoma AGS cells (CRL-1739) were grown as monolayers in Ham F-12 medium containing 1 mM L-glutamine and 1.5 g/L sodium bicarbonate. Promyelocytic leukemia HL-60 cells (CCL-240) were grown in suspension in RPM1 medium containing 1 mM sodium pyruvate and 2.0 g/L sodium bicarbonate. All media were supplemented with 10% heat-inactivated FBS, 100 IU/mL penicillin and 100 µg/mL streptomycin. Cells were grown in a humidified incubator with 5% CO2 in air at 37 °C. For the antiproliferative assay, adherent cells were plated at a density of 5 × 10^4 cells/mL and HL-60 cells at 30 × 10^4 cells/mL. Cells were seeded in 96-well plates (100 µL/well). One day after seeding, cells were treated with medium containing the compounds at concentrations ranging from 0 up to 100 µM during 3 days. The compounds were dissolved in DMSO (1% final concentration) and complete medium. Untreated cells (medium containing 1% DMSO) were used as 100% viability controls. […] Each concentration was tested in sextuplicate and experiments were repeated 2 times. Cell viability was determined by means of the MTT reduction assay at the end of the incubation with the products. The results were transformed to percentage of controls and the IC50 values were graphically obtained from the dose-response curves.

[3] = test system: lung cancer (SK-MES-1) cells; assay: Antiproliferative assay (MTT reduction), SK-MES-1; assay type: cell-based; details: Homo sapiens, 72 h, SK-MES-1 lung cancer cells, 3 days treatment, read-out: IC50 ± SD, SK-MES-1
Method: as §1

[4] = test system: bladder carcinoma (J82) cells; assay: Antiproliferative assay (MTT reduction), J82; assay type: cell-based; details: Homo sapiens, 72 h, 3 days treatment, read-out: IC50 ± SD, J82
Method: as §2

[5] = test system: promyelocytic leukemia (HL-60) cells; assay: Antiproliferative assay (MTT reduction), HL-60; assay type: cell-based; details: Homo sapiens, 72 h, HL-60 promyelocytic leukemia cells, 3 days treatment, read-out: IC50 ± SD, HL-60
Method: as §1

[6] = test system: MRC-5, AGS, HL-60, SK-MES-1 and J82 cells; assay: Antiproliferative assay (MTT reduction), all cell lines together; assay type: cell-based, human; parameters: key to Antiproliferative activity in words, all cell lines: IC50 values > 100 µM were considered inactive; details: SK-MES-1, J82 and HL-60; for Antiproliferative activity in words, all cell lines: MRC-5, AGS, up to 100 µM; for IC50: Homo sapiens, range over MRC-5, AGS
Method: as §2

| SMILES | IC50 [2] [µM] | IC50 [3] [µM] | IC50 [4] [µM] | IC50 [5] [µM] | melting point [°C] | IC50 [1] [µM] | Antiproliferative activity in words, all cell lines [6] | Antiproliferative activity in words, MRC-5 ([1]; MRC-5 cells, up to 100 µM) | IC50 [6] [µM] |
| --- | --- | --- | --- | --- | --- | --- | --- | --- | --- |
| COC(=O)[C@]12CCC(C)(C)C[C@H]1C1=CCC3[C@@]4(C)CC[C@H](OC(=O)CCc5cn(Cc6ccc(Cl)cc6)nn5)C(C)(C)C4CC[C@@]3(C)[C@]1(C)CC2 (stereo partly drawn) [Compound 10] | > 100 | > 100 | > 100 | > 100 |  | > 100 | activity was lost |  |  |
| COC(=O)[C@]12CCC(C)(C)C[C@H]1C1=CCC3[C@@]4(C)CC[C@H](OC(=O)CCCc5cn(CSc6ccccc6)nn5)C(C)(C)C4CC[C@@]3(C)[C@]1(C)CC2 (stereo partly drawn) [Compound 18] | > 100 | > 100 | > 100 | > 100 |  | > 100 |  |  |  |
| COC(=O)[C@]12CCC(C)(C)C[C@H]1C1=CCC3[C@@]4(C)CC[C@H](OC(=O)CCc5cn(CSc6ccccc6)nn5)C(C)(C)C4CC[C@@]3(C)[C@]1(C)CC2 (stereo partly drawn) [Compound 14] | > 100 | > 100 | > 100 | > 100 | 195 | > 100 |  |  |  |
| CC1(C)CC[C@]2(C(=O)O)CC[C@]3(C)C(=CCC4[C@@]5(C)CC[C@H](OC(=O)CCc6cn(-c7ccccc7)nn6)C(C)(C)C5CC[C@]43C)[C@@H]2C1 (stereo partly drawn) [Compound 5] | > 100 | > 100 | > 100 | > 100 |  | > 100 |  |  |  |
| COC(=O)[C@]12CCC(C)(C)C[C@H]1C1=CCC3[C@@]4(C)CC[C@H](OC(=O)CCCc5cn(S(=O)(=O)c6ccc(C)cc6)nn5)C(C)(C)C4CC[C@@]3(C)[C@]1(C)CC2 (stereo partly drawn) [Compound 16] | > 100 | > 100 | > 100 | 84.2 ± 7.5 |  | > 100 |  |  |  |
| COC(=O)[C@]12CCC(C)(C)C[C@H]1C1=CCC3[C@@]4(C)CC[C@H](OC(=O)CCc5cn(-c6ccc(OC)cc6)nn5)C(C)(C)C4CC[C@@]3(C)[C@]1(C)CC2 (stereo partly drawn) [Compound 8] | > 100 | > 100 | > 100 | > 100 |  | > 100 |  |  |  |
| C#CCCC(=O)O[C@H]1CC[C@@]2(C)C(CC[C@]3(C)C2CC=C2[C@@H]4CC(C)(C)CC[C@]4(C(=O)OC)CC[C@]23C)C1(C)C (stereo partly drawn) [Compound 2] | > 100 | > 100 | > 100 | > 100 | 173 | > 100 | inactive |  |  |
| COc1cc([C@@H]2c3cc4c(cc3[C@@H](O[C@@H]3O[C@@H]5CO[C@@H](C)O[C@H]5[C@H](O)[C@H]3O)[C@H]3COC(=O)[C@H]23)OCO4)cc(OC)c1O [Etoposide, reference compound] | 0.58 ± 0.02 |  | 3.49 ± 0.16 |  |  |  |  |  |  |
| C#CCCCC(=O)O[C@H]1CC[C@@]2(C)C(CC[C@]3(C)C2CC=C2[C@@H]4CC(C)(C)CC[C@]4(C(=O)OC)CC[C@]23C)C1(C)C (stereo partly drawn) [Compound 4] | > 100 | > 100 | > 100 | > 100 | 176 | > 100 | inactive |  |  |

Second part, led by results:

| IC50 [2] [µM] | IC50 [3] [µM] | IC50 [4] [µM] | IC50 [5] [µM] | melting point [°C] | SMILES | IC50 [1] [µM] | Antiproliferative activity in words, all cell lines [6] | Antiproliferative activity in words, MRC-5 ([1]; MRC-5 cells, up to 100 µM) | IC50 [6] [µM] |
| --- | --- | --- | --- | --- | --- | --- | --- | --- | --- |
| > 100 | > 100 | > 100 | > 100 |  | COC(=O)[C@]12CCC(C)(C)C[C@H]1C1=CCC3[C@@]4(C)CC[C@H](OC(=O)CCc5cn(-c6ccccc6)nn5)C(C)(C)C4CC[C@@]3(C)[C@]1(C)CC2 (stereo partly drawn) [Compound 6] | > 100 |  |  |  |
| 23.7 ± 1.4 | 61.8 ± 3.1 | > 100 | 11.8 ± 0.9 | 198 | CC1(C)CC[C@]2(C(=O)O)CC[C@]3(C)C(=CCC4[C@@]5(C)CC[C@H](OC(=O)CCCc6cn(CSc7ccccc7)nn6)C(C)(C)C5CC[C@]43C)[C@@H]2C1 (stereo partly drawn) [Compound 17] | 46.7 ± 2.4 |  |  |  |
| 31.6 ± 1.6 | 65.5 ± 4.4 | > 100 | 18.1 ± 1.6 | 170 | CC1(C)CC[C@]2(C(=O)O)CC[C@]3(C)C(=CCC4[C@@]5(C)CC[C@H](OC(=O)CCc6cn(CSc7ccccc7)nn6)C(C)(C)C5CC[C@]43C)[C@@H]2C1 (stereo partly drawn) [Compound 13] | > 100 |  | inactive |  |
| 10.8 ± 0.6 | 21.4 ± 1.3 | 47.1 ± 2.9 | 15.9 ± 1.5 | 163 | Cc1ccc(S(=O)(=O)n2cc(CCC(=O)O[C@H]3CC[C@@]4(C)C(CC[C@]5(C)C4CC=C4[C@@H]6CC(C)(C)CC[C@]6(C(=O)O)CC[C@]45C)C3(C)C)nn2)cc1 (stereo partly drawn) [Compound 11] | 14.1 ± 0.8 |  |  | 10.8 to 47.1 |
| 8.9 ± 0.4 | 50.4 ± 3.5 | 35.4 ± 2.8 | 35.8 ± 4.1 | 184 | CC1(C)CC[C@]2(C(=O)O)CC[C@]3(C)C(=CCC4[C@@]5(C)CC[C@H](OC(=O)CCc6cn(Cc7ccc(Cl)cc7)nn6)C(C)(C)C5CC[C@]43C)[C@@H]2C1 (stereo partly drawn) [Compound 9] | > 100 |  |  |  |
| 95.1 ± 5.8 | > 100 | > 100 | > 100 | 210 | COc1ccc(-n2cc(CCC(=O)O[C@H]3CC[C@@]4(C)C(CC[C@]5(C)C4CC=C4[C@@H]6CC(C)(C)CC[C@]6(C(=O)O)CC[C@]45C)C3(C)C)nn2)cc1 (stereo partly drawn) [Compound 7] | > 100 |  |  |  |
| 22.1 ± 1.5 | 23.4 ± 1.8 | 56.2 ± 4.3 | 22.4 ± 0.1 | 212 | C#CCCCC(=O)O[C@H]1CC[C@@]2(C)C(CC[C@]3(C)C2CC=C2[C@@H]4CC(C)(C)CC[C@]4(C(=O)O)CC[C@]23C)C1(C)C (stereo partly drawn) [Compound 3] | 14.1 ± 1.2 |  |  | 14.1 to 56.2 |
| 22.2 ± 1.6 | 11.9 ± 0.6 | 14.3 ± 0.6 | 11.5 ± 1 | 186 | Cc1ccc(S(=O)(=O)n2cc(CCCC(=O)O[C@H]3CC[C@@]4(C)C(CC[C@]5(C)C4CC=C4[C@@H]6CC(C)(C)CC[C@]6(C(=O)O)CC[C@]45C)C3(C)C)nn2)cc1 (stereo partly drawn) [Compound 15] | 17.1 ± 1 |  |  | 11.5 to 22.2 |
| 63 ± 3.8 | 76.3 ± 5.1 | > 100 | 22.4 ± 1.8 |  | COC(=O)[C@]12CCC(C)(C)C[C@H]1C1=CCC3[C@@]4(C)CC[C@H](OC(=O)CCc5cn(S(=O)(=O)c6ccc(C)cc6)nn5)C(C)(C)C4CC[C@@]3(C)[C@]1(C)CC2 (stereo partly drawn) [Compound 12] | 76 ± 3.8 |  |  |  |
| 19.1 ± 1 | 22.4 ± 1.9 | 23.1 ± 1.6 | 19.6 ± 0.1 | 235 | C#CCCC(=O)O[C@H]1CC[C@@]2(C)C(CC[C@]3(C)C2CC=C2[C@@H]4CC(C)(C)CC[C@]4(C(=O)O)CC[C@]23C)C1(C)C (stereo partly drawn) [Compound 1] | 21.3 ± 0.9 |  |  | 19.6 to 23.1 |
